Data reported in US9181264B2, “Fused heteroaryls and their uses” (Hutchison MediPharma Limited, priority 2011, dated 2015).

Assays:
mTOR kinase = target: T1, mTOR kinase (Homo sapiens, UniProt P42345); test: mTOR LanthaScreen TR-FRET assay; format: biochemical; settings: 10 μmol/L ATP, GFP-4EBP1 substrate; read-out: IC50, inhibition of mTOR
T1 construct: purchased Invitrogen PV4753
Protocol: Compounds are tested using LanthaScreen TR-FRET Assay. The kinase reaction is completed in 384-well black plate (Corning, Cat. 3676). The final conditions for kinase assay are: 10 μmol/L of ATP, 0.2 ng/μL of mTOR kinase, 0.4 μmol/L of GFP-4EBP1 substrate and assay buffer (50 mmol/L of HEPES, pH 7.5, 0.01% of Tween 20, 1 mmol/L of EGTA, 10 mmol/L of MnCl2, 2 mmol/L of DTT and 1% DMSO).
To each well, 2.5 μL of test compounds in 4% DMSO and 2.5 μL of 0.8 ng/μL mTOR kinase (Invitrogen, PV4753) diluted in assay buffer are added. The reaction is initiated by the addition of 5 μL mixture of 0.8 μmol/L GFP-4EBP1 Substrate (Invitorgen, PV4759) and 20 μmol/L ATP mixtures. The mixture is incubated at room temperature for 60 minutes. 10 μL of 20 mmol/L EDTA and 4 nmol/L Tb-anti-p4EBP1 [pThr46] antibody (Invitrogen, PV4755) diluted in TR-FRET dilution buffer are added and incubated for an additional 1 hour. The plate is then read in a BioTek Synergy2 Reader at excitation of 340 nm and emission of 490 nm and 528 nm.
The inhibition of test compound is calculated based on the ratio of 528 nm/490 nm. IC50 of test compound is obtained using XLfit 2.0 software.

PI3Kα kinase = target: T2, PI3Kα kinase (Homo sapiens, UniProt P42336); test: PI3Ka Transcreener ADP assay (fluorescence polarization); format: biochemical; settings: 10 μM ATP, 30 μmol/L lipid substrate; read-out: IC50, inhibition of PI3Kα kinase
T2 construct: purchased Invitrogen PV4788
Method in brief: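 Transcreener ADP FP assay with PI3Kα (0.2 ng/μL), 30 μmol/L lipid substrate (PIP2) and 10 μM ATP (final) in HEPES pH 7.5 buffer with MgCl2, 0.03% CHAPS, 2% DMSO. 60 min reaction at room temperature, then ADP detection 1.5 h (ex 610/em 670 nm). ADP from standard curve; IC50 fitted.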

T1 sequence (P42345 1360-2549 limits assumed): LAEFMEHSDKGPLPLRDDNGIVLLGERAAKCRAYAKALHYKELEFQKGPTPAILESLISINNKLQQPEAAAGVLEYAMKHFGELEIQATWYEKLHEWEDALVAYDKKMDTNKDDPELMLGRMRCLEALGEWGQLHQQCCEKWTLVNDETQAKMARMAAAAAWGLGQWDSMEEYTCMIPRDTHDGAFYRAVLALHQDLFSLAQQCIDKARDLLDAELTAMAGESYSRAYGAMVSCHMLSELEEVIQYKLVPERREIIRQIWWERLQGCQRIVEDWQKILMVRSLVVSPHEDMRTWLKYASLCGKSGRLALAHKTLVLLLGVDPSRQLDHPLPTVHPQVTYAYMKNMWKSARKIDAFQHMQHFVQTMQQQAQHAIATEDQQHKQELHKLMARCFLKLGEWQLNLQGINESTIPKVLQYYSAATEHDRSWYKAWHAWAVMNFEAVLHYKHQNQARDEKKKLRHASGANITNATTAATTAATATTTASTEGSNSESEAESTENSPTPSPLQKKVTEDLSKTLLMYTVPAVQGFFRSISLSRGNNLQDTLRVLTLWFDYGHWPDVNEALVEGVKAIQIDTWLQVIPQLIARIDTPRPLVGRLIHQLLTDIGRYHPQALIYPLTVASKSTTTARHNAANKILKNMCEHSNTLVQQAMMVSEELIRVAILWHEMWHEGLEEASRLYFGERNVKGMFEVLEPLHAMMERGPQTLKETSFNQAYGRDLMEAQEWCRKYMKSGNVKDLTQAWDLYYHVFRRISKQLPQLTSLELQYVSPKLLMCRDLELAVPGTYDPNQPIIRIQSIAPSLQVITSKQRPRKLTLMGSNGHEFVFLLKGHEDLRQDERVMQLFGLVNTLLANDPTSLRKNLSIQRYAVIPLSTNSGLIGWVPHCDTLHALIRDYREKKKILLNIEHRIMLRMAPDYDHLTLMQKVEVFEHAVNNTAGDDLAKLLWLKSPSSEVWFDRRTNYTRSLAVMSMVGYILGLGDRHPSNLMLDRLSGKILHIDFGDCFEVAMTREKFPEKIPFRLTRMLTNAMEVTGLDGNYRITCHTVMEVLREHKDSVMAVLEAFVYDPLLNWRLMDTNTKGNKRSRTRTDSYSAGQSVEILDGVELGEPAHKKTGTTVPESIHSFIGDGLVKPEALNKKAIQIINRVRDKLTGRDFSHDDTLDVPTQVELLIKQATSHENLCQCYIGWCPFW
T2 sequence (P42336 whole entry): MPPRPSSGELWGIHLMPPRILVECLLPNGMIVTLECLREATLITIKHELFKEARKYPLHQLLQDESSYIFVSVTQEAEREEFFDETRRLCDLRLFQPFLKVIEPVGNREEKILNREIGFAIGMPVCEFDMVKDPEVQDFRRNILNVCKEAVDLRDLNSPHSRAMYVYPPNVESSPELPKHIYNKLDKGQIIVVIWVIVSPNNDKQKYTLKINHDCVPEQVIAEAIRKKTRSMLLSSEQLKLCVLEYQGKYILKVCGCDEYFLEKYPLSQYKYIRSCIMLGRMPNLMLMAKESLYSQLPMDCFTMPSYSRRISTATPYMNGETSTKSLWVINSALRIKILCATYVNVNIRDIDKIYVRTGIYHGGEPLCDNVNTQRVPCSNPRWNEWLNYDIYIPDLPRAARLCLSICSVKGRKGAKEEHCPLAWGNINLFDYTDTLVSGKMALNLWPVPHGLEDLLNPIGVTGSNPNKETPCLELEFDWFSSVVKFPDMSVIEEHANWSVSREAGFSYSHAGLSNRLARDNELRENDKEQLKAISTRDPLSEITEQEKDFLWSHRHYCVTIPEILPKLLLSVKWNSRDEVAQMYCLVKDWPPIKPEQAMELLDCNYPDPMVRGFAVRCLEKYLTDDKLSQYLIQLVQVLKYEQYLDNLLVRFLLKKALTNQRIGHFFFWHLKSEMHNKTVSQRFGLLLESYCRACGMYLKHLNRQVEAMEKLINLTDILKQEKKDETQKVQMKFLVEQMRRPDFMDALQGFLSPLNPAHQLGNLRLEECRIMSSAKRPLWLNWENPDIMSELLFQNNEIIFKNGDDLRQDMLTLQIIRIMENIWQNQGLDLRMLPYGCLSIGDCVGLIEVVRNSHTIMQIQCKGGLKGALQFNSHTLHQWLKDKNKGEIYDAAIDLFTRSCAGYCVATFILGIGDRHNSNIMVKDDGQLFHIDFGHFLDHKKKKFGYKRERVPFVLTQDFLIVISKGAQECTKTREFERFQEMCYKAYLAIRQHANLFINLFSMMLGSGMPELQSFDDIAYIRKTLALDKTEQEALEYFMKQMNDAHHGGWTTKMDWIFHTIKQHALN
T2 sequence (P27986 whole entry partner): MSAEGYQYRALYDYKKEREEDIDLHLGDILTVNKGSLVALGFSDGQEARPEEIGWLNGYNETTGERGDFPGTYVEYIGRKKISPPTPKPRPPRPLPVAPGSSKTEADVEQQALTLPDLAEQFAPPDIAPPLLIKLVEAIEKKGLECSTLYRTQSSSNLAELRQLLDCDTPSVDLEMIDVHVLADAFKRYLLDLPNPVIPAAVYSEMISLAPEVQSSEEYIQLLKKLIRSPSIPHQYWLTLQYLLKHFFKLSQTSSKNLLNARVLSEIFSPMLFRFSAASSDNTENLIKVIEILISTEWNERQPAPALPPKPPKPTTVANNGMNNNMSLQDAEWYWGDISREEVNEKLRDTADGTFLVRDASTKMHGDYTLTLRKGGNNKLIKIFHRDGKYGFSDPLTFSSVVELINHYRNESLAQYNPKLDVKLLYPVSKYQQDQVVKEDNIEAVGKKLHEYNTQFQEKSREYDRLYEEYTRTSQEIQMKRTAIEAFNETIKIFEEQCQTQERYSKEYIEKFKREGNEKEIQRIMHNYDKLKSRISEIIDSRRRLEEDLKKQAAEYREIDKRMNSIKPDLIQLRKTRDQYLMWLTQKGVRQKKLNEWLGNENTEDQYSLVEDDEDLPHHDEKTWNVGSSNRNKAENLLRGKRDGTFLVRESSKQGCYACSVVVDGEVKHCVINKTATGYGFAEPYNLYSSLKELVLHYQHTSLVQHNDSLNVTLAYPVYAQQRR

Structure (SMILES)	IC50 (mTOR kinase) [nM]	IC50 (PI3Kα kinase) [nM]
CCC(=O)N1CCC(n2c(C)nc3cnc4ccc(-c5cnc(N)c(C(F)(F)F)c5)nc4c32)CC1 [Compound 120]	< 100	< 100
Cc1nc2cnc3ccc(-c4cnc(N)c(C(F)(F)F)c4)nc3c2n1C1CCN(CC2(C)COC2)CC1 [Compound 121]	< 100	< 100
Cc1nc2cnc3ccc(-c4cnc(N)c(C(F)(F)F)c4)nc3c2n1C1CCN(C(=O)[C@H](C)O)CC1 [Compound 122]	< 100	< 100
Cc1nc2cnc3ccc(-c4cnc(N)c(C(F)(F)F)c4)nc3c2n1C1CCN(CC(=O)N(C)C)CC1 [Compound 123]	< 100	< 100
Cc1nc2cnc3ccc(-c4cnc(N)c(C(F)(F)F)c4)nc3c2n1C1CCN(CCO)CC1 [Compound 129]	< 100	< 100
CCc1nc2cnc3ccc(-c4cnc(N)c(C(F)(F)F)c4)nc3c2n1C1CCOCC1 [Compound 131]	< 100	< 100
COc1ncc(-c2ccc3ncc4nnc(-c5ccc(F)cc5)n4c3c2)cc1NS(C)(=O)=O [Compound 152]	< 100	< 100
COc1ncc(-c2ccc3ncc4ncn(C)c4c3n2)cc1NS(=O)(=O)c1ccc(F)cc1F [Compound 153]	< 100	< 100
COc1ncc(-c2ccc3ncc4nnn(C)c4c3n2)cc1NS(=O)(=O)c1ccc(F)cc1F [Compound 154]	< 100	< 100
COc1ncc(-c2ccc3ncc4nnc(C)n4c3c2)cc1NS(=O)(=O)C(F)(F)F [Compound 155]	< 100	< 100
Cc1ncc(-c2ccc3ncc4nnc(C)n4c3c2)cc1NS(=O)(=O)c1ccc(F)cc1F [Compound 156]	< 100	< 100
COc1ncc(-c2ccc3ncc4ncn(C)c4c3n2)cc1NS(=O)(=O)C(F)(F)F [Compound 159]	< 100	< 100
COc1ncc(-c2ccc3ncc4nnc(CN(C)C)n4c3c2)cc1NS(=O)(=O)C(F)(F)F [Compound 165]	< 100	< 100
COc1ncc(-c2ccc3ncc4nc(C)n(C)c4c3n2)cc1NS(=O)(=O)C(F)(F)F [Compound 166]	< 100	< 100
COc1ncc(-c2ccc3ncc4ncn(CCN(C)C)c4c3n2)cc1NS(=O)(=O)C(F)(F)F [Compound 178]	< 100	< 100
COc1ncc(-c2ccc3ncc4nnc(C)n4c3c2)cc1NS(=O)(=O)c1ccccc1F [Compound 180]	< 100	< 100
COc1ncc(-c2ccc3ncc4nnc(C)n4c3c2)cc1NS(=O)(=O)c1ccccc1 [Compound 181]	< 100	< 100

Results, then the compound that gave them:

IC50 (mTOR kinase) [nM]	IC50 (PI3Kα kinase) [nM]	Structure (SMILES)
< 100	< 100	COc1ncc(-c2ccc3ncc4nnc(C)n4c3c2)cc1NS(=O)(=O)c1ccc(F)cc1F [Compound 147, 2,4-difluoro-N-(2-methoxy-5-(1-methyl-[1,2,4]triazolo[4,3-a]quinoxalin-8-yl)pyridin-3-yl)benzenesulfonamide]
< 100	< 100	COc1ncc(-c2ccc3ncc4nn(C)c(=O)n4c3c2)cc1NS(=O)(=O)c1ccc(F)cc1F [Compound 148]
< 100	< 100	CCn1nc2cnc3ccc(-c4cnc(OC)c(NS(=O)(=O)c5ccc(F)cc5F)c4)cc3n2c1=O [Compound 149]
< 100	< 100	COc1ncc(-c2ccc3ncc4nc(C)n(C)c4c3n2)cc1NS(=O)(=O)c1ccc(F)cc1F [Compound 151]
< 100	< 100	COc1ncc(-c2ccc3ncc4nnc(OC)n4c3c2)cc1NS(=O)(=O)c1ccc(F)cc1F [Compound 157]
< 100	< 100	COc1ncc(-c2ccc3ncc4nnc(CN(C)C)n4c3c2)cc1NS(=O)(=O)c1ccc(F)cc1F [Compound 158]
< 100	< 100	COc1ncc(-c2ccc3ncc4c(c3c2)n(C)c(=O)n4C)cc1NS(=O)(=O)c1ccc(F)cc1F [Compound 160]
